Data taken from article PMC3959589 (Analytical and bioanalytical chemistry, 2014).

Key:
plasma protein = conditions: cited from earlier work
[1] = molecular target: T1, human serum albumin (HSA) (Homo sapiens, UniProt P02768); assay: biochemical
[2] = molecular target: T1, human serum albumin (HSA); conditions: dose-response, 500 nM Red Mega 500, 0.2 mg/mL HSA

T1 sequence (P02768 25-609): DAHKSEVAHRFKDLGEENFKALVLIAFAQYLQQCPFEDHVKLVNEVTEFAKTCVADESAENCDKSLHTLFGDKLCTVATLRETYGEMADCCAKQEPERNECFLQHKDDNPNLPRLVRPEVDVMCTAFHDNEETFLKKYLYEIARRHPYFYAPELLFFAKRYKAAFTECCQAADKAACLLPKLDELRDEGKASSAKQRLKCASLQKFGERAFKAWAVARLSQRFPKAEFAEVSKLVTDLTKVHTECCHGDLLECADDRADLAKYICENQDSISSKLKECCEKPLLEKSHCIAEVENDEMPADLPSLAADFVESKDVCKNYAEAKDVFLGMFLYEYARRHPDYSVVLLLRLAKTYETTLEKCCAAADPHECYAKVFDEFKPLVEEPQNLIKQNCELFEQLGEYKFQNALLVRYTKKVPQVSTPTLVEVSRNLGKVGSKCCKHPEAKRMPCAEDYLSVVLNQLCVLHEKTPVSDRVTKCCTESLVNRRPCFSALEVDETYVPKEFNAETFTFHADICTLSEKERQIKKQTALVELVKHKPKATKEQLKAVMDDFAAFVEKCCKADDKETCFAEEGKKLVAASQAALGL

IC50 [1] [µM] | efficacy of inhibition of HSA–Red Mega 500 binding [2] | Compound | plasma protein binding class (low / medium / high) (plasma protein)
 |  | COc1ccc2[nH]c([S+]([O-])Cc3ncc(C)c(OC)c3C)nc2c1 (stereo not drawn) [omeprazole] | high
 |  | CN1C(C(=O)Nc2ccccn2)=C(O)c2ccccc2S1(=O)=O [piroxicam] | high
 |  | Cc1c(OCC(F)(F)F)ccnc1C[S+]([O-])c1nc2ccccc2[nH]1 (stereo not drawn) [lansoprazole] | high
4.4 ± 1.9 | weaker efficacy | CC/C(=C(/CC)c1ccc(O)cc1)c1ccc(O)cc1 [diethylstilbestrol] | medium
